These results are taken from ChEMBL document CHEMBL1156872, “Synthesis and discovery of 2,3-dihydro-3,8-diphenylbenzo[1,4]oxazines as a novel class of potent cholesteryl ester transfer protein inhibitors” (Bioorg Med Chem Lett, 2010).

One series addresses Cytochrome P450 2C9 (Homo sapiens, UniProt P11712). The experiment in a line: Inhibition of CYP2C9 in human liver microsomes. Type of series: ADME, Microsome. In general terms: Liver microsomes are a subcellular fraction often used to study metabolism.
Series [1] can be described thus: Clearance in rat at 10 mg/kg, po and 2 mg/kg, iv. The series is classed as ADME, organism-based. As to conditions: in vivo.
Series [2] is described as follows: Half life in human liver microsomes. The series is classed as ADME, Microsome.
For series [3], the system named is Mus musculus. Description: Increase in HDL cholesterol level in normal chow diet fed male CETP transgenic mouse at 30 mg/kg, po after 5 days. Type of series: functional.
The subject of series [4] is Mus musculus. The experiment in a line: Increase in HDL cholesterol level in normal chow diet fed male CETP transgenic mouse at 10 mg/kg, po after 5 days. Type of series: functional.
Series [5] in a line: Oral bioavailability in rat at 10 mg/kg. The series is classed as ADME, organism-based. As to conditions: in vivo.
Series [6] in a line: Aqueous solubility at pH 7.4. Type of series: physicochemical. As to conditions: aqueous medium.
The target of series [7] is T1, Cholesteryl ester transfer protein (Homo sapiens, UniProt P11597).
T1 sequence (P11597 whole entry): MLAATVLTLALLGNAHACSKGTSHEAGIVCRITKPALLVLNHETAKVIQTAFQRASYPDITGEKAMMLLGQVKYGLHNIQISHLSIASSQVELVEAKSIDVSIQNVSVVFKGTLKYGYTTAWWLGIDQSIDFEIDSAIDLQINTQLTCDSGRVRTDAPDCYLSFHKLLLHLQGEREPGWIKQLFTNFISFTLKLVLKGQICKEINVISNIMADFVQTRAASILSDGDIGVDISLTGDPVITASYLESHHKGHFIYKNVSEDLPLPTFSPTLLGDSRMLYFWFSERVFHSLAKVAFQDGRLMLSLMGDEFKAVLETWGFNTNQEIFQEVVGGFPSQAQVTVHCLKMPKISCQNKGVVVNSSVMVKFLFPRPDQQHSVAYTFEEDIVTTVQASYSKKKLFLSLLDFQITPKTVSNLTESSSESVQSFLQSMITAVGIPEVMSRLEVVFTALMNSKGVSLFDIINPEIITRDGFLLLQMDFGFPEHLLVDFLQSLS
Description: Inhibition of cholesteryl ester transfer protein in human plasma by [3H]CE HDL assay. Type of series: cell-free.

Series [8] has as its target T2, Cholesteryl ester transfer protein (Homo sapiens) (UniProt P11597).
T2 sequence (whole entry): T1 sequence (P11597 whole entry)
Description: Inhibition of human cholesteryl ester transfer protein at 1 uM by scintillation proximity assay.

In series [9] the test system is Mus musculus. Description: Increase in HDL cholesterol level in normal chow diet fed female CETP transgenic mouse at 3 mg/kg, po after 5 days. The series is classed as functional.
The subject of series [10] is Mus musculus. Description: Increase in HDL cholesterol level in normal chow diet fed female CETP transgenic mouse at 30 mg/kg, po after 5 days. The series is classed as functional.
A short description of series [11]: Volume of distribution at steady state in rat at 10 mg/kg, po and 2 mg/kg, iv. Type of series: ADME, organism-based. Particulars: in vivo, read-out: Vdss.
The nature of series [12]: Tmax in rat at 10 mg/kg, po and 2 mg/kg, iv. Type of series: ADME, organism-based. As to conditions: in vivo.
Series [13] in a line: Aqueous solubility at pH 2.0. As to conditions: aqueous medium. The series is classed as physicochemical.
For series [14], the target named is T3, Cytochrome P450 3A4 (Homo sapiens, UniProt P08684). The experiment in a line: Inhibition of CYP3A4 […] isoform in human liver microsomes. The series is classed as ADME, Microsome.
The test system of series [15] is Hamster. The experiment in a line: Increase in HDL cholesterol level in high fat diet fed hamster at 10 mg/kg, po after 5 days. The series is classed as functional, Cricetinae.
The target in a further series is T4, Cytochrome P450 1A2 (Homo sapiens, UniProt P05177).
T4 sequence (P05177 whole entry): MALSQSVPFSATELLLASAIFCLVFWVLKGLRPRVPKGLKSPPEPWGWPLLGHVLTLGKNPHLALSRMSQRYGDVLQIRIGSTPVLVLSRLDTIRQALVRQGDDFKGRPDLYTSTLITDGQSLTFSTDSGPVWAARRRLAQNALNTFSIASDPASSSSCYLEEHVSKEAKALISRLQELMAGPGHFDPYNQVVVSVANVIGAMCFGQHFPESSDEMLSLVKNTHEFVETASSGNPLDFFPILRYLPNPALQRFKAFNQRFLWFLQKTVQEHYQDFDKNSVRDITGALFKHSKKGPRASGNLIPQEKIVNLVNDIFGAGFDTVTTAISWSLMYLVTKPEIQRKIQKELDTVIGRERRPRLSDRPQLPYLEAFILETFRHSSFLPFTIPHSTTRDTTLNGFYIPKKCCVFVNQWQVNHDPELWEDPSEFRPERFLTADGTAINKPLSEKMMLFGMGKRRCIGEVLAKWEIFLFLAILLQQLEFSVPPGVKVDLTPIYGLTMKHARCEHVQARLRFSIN
The experiment in a line: Inhibition of CYP1A2 in human liver microsomes. The series is classed as ADME, Microsome.

The target of series [16] is T3, Cytochrome P450 3A4. The experiment in a line: Inhibition of CYP3A4 tissue isoform in human liver microsomes. The series is classed as ADME, Microsome.
Series [17] deals with Mus musculus. The experiment in a line: Increase in HDL cholesterol level in normal chow diet fed female CETP transgenic mouse at 10 mg/kg, po after 5 days. Type of series: functional.
Series [18] can be described thus: AUC in rat at 10 mg/kg, po and 2 mg/kg, iv. Particulars: plasma. The series is classed as ADME, organism-based.
The next series has as its target Cytochrome P450 2C19 (Homo sapiens, UniProt P33261). Description: Inhibition of CYP2C19 in human liver microsomes. Type of series: ADME, Microsome.
The subject of series [19] is Hamster. Description: Increase in HDL cholesterol level in high fat diet fed hamster at 30 mg/kg, po after 5 days. Type of series: functional, Cricetinae.
Another series addresses Cytochrome P450 2D6 (Homo sapiens, UniProt P10635). The experiment in a line: Inhibition of CYP2D6 in human liver microsomes. Type of series: ADME, Microsome.
The test system of series [20] is Mus musculus. Description: Increase in HDL cholesterol level in normal chow diet fed male CETP transgenic mouse at 3 mg/kg, po after 5 days. The series is classed as functional.

≈ marks a conversion by molar mass, not a printed value. A value given as a limit tells only on which side of the number the result lay.

T3 sequence (P08684 whole entry, canonical isoform): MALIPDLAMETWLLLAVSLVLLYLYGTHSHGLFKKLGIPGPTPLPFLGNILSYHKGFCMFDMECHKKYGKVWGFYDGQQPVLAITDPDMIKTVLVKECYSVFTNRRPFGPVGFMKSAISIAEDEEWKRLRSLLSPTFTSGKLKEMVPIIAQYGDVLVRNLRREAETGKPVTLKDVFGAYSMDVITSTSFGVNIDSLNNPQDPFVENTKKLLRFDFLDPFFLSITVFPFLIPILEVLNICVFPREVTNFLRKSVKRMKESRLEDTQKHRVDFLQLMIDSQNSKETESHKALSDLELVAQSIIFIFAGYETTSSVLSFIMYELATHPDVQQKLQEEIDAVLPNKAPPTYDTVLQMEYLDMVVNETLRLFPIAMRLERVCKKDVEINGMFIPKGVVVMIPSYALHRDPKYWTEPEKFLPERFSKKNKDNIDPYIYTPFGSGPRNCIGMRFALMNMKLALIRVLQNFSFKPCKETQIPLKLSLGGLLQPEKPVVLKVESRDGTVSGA
Cytochrome P450 2C19, sequence (P33261 whole entry): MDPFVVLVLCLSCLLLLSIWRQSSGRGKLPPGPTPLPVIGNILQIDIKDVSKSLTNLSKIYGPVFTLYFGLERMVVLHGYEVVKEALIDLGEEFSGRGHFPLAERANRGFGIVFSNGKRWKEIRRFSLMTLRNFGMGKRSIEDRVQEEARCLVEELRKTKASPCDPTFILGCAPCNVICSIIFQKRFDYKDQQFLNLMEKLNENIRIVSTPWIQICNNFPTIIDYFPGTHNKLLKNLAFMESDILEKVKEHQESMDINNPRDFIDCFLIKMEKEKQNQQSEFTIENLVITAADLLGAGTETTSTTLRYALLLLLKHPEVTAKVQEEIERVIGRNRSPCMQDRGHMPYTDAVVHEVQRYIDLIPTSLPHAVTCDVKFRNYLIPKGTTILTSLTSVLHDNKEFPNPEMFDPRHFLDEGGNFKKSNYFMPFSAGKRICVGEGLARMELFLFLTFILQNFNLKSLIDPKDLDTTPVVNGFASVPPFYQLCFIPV
Cytochrome P450 2D6, sequence (P10635 whole entry): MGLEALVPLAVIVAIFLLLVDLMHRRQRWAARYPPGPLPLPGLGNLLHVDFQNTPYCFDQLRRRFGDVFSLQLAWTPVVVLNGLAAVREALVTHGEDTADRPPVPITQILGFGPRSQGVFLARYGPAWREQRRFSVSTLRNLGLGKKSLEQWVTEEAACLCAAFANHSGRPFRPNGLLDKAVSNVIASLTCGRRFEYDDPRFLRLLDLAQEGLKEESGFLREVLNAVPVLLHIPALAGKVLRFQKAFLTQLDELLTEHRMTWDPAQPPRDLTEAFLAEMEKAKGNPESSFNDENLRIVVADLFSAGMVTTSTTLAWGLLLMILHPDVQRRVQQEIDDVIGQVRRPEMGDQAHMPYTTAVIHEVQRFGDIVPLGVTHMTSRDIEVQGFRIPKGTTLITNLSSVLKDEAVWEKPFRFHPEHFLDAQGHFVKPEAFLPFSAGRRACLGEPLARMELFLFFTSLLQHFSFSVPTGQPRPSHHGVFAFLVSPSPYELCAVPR
Cytochrome P450 2C9, sequence (P11712 whole entry): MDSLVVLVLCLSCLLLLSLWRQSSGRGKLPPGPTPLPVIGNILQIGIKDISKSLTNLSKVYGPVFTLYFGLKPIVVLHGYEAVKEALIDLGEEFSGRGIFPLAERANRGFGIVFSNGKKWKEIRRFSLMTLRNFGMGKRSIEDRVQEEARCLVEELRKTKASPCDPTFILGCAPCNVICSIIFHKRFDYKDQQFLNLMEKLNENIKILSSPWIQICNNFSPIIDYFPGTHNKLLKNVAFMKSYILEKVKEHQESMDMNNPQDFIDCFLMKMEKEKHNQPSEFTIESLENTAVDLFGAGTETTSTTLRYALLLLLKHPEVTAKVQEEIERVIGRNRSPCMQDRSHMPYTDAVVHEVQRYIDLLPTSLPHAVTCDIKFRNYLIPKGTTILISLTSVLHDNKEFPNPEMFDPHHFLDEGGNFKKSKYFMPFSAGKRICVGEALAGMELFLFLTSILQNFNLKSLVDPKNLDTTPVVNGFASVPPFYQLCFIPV

The IC50 is the concentration that inhibits the measured activity by half. Low readings indicate greater potency in that assay, high ones weaker potency in that assay. A word on the half-life: it is the time in which the quantity being followed falls by half. By bioavailability is commonly meant dose-corrected exposure relative to a reference, in per cent. A word on the solubility: it is the concentration that dissolves in the medium under given conditions. A low value points to a poorly soluble substance. In general, inhibition refers to the relative decrease from the control value, in per cent. Low values mean a weak effect, high ones a strong effect. The term Tmax denotes the time from dosing to the highest level. What is called AUC is concentration integrated over time. A lower AUC goes with low exposure. For `O[C@@H](CN1c2cccc(-c3cccc(OC(F)(F)F)c3)c2OC[C@@H]1c1cccc(OC(F)(F)C(F)F)c1)C(F)(F)F`, the concentration for half-maximal inhibition (IC50) against Cytochrome P450 2C9 is > 100 µM; in series [7] it was 1 µM; on Cytochrome P450 3A4 [14], > 100 µM; against Cytochrome P450 1A2 it was > 100 µM; on Cytochrome P450 3A4 [16] it was > 100 µM; against Cytochrome P450 2C19 it was > 100 µM. In addition, on Cytochrome P450 2D6, the half-maximal inhibitory concentration (IC50) is > 100 µM. The clearance in series [1] was 4.6 mL/min/kg. The half-life in series [2] turned out to be 1.03 h. The Activity in the series on Mus musculus [3] is listed as 28%; in the series on Mus musculus [4] it was 10%; with Mus musculus [9] it was 4%; in the series on Mus musculus [10], 24%; in the series on Hamster [15], 9%; in the series with Mus musculus [17], 8%. For the same compound, the Activity with Hamster [19] is given as 16%; with Mus musculus [20] it was 11%. Moreover, the bioavailability in [5] was 53%. The figures for the solubility in [6] and in series [13] were 2.7 µg/mL (≈ 4.5 µM) and 11 µg/mL (≈ 18.4 µM), respectively. For the same compound, the inhibition in series [8] was determined as 91%. Besides, the Vd in series [11] came out at 0.73 L/kg. Also, the time to peak (Tmax) in [12] stood at 11.5 h. This compound registered an area under the curve (AUC) in [18] of 19800 ng·h/mL.
